Laboratory results taken from PubChem BioAssay AID1919007 (Molecular Pharmacology Branch, DTP, NCI, 2023).
pIC50: −log10 of the molar value.

Test system: A498 complex spheroids with HUVEC/MSC, growth
Experiment: Anticancer human tumor A498 cell line growth inhibition [AhR];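 further: seven day exposure starting three days after spheroid seeding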;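 on viability, T/C: luminescence signal used as a surrogate for viable cells; luminescence viability scaled so 100% equals DMSO vehicle wells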
Details: for pIC50: curve of first compound; for viability, T/C: stronger effect = lower value
Excerpt: Multicellular complex tumor spheroid response to aryl hydrocarbon receptor antagonists in combination with a variety of drugs and investigational agents in selected tumor cell lines
The current study was undertaken to assess response to aryl hydrocarbon receptor antagonists in combination with standard-of-care drugs and investigational agents in solid tumor complex spheroid models. Complex spheroids include a stromal component modeled by human endothelial cells (HUVEC) and fibroblasts modeled by human mesenchymal stem cells (MSCs). The concentration ranges selected for each drug and investigational agent were based upon clinically achievable concentrations if the clinical Cmax of the agent was known.
Compounds. The drugs and investigational agents: BAY 2416964 (NSC825713), GNF351 (NSC835774), CH-223191 (NSC835775), CPI-455 (NSC825282), aza-TdCyd (NSC777586), decitabine (NSC127716), belinostat (NSC758774), entinostat (NSC756642), pevonedistat (NSC761192), tazemetostat (NSC777109), talazoparib (NSC765396), olaparib (NSC753686), selinexor (NSC780203), nedisertib (M3814, NSC802822), bortezomib (NSC756655), venetoclax (NSC766270), doxorubicin (NSC123127), elimusertib (BAY189344, NSC800525), ceralasertib (AZD6738, NSC777638), TAK-243 (NSC785004), alisertib (NSC759677), etoposide (NSC141540), topotecan (NSC609699), eribulin (NSC707389), gemcitabine (NSC613327), carboplatin (NSC241240), cisplatin (NSC119875), and SN-38 (NSC673596) were obtained from the National Cancer Institute (NCI) Developmental Therapeutics Program Chemical Repository (32). The FDA-approved anticancer drug set is available from the Developmental Therapeutics Program at https://dtp.cancer.gov/organization/dscb/obtaining/available plates.htm. […] The stock solutions were prepared in dimethyl sulfoxide (DMSO, Sigma-Aldrich, St. Louis, MO, cat. D2650), except for the platinum compounds which were prepared in saline (Quality Biological, Gaithersburg, MD, cat. 114-055-101), at 800-fold the tested concentration and stored at -70 degrees C prior to their use. All drugs and investigational agents were tested over a range starting from a high concentration at or near the clinical Cmax and decreasing in half-log increments. If the clinical Cmax for an agent had not been determined, the highest concentration tested was 10 microM (Table 1).
Cell Culture. All cells were maintained in an incubator at 37 degrees C and 5% CO2 with 95% humidity. The PDC lines were cultured according to standard operating procedures established by the NCI PDMR (https://pdmr.cancer.gov). Briefly, all PDCs were thawed and cultured in Matrigel-coated flasks prepared with a working solution of 1X Ham's F-12 nutrient mix, without supplementation (Invitrogen, Waltham, MA, cat. 11765054), 100 U/mL penicillin-streptomycin (Invitrogen, cat. 15140122), and 2.5% Matrigel (Corning Inc., Corning, NY, cat. 354248) for the first three passages. All PDCs were cultured in complete DMEM/F-12 media containing advanced DMEM/F-12 (Invitrogen, cat. 12634028), 4.9% defined fetal bovine serum, heat inactivated (HyClone Laboratories Inc., Logan, UT, cat. SH30070.03HI), 389 ng/mL hydrocortisone (Sigma-Aldrich, cat. H4001), 9.7 ng/mL human EGF recombinant protein (Invitrogen, cat. PHG0313), 23.4 microg/mL adenine (Sigma-Aldrich, cat. A2786), 97.3 U/mL penicillin-streptomycin (Invitrogen, cat. 15140122), 1.9 mM L-glutamine (Invitrogen, cat. 25030081), and 9.7 microM Y-27632 dihydrochloride (Tocris Bioscience, Bristol, United Kingdom, cat. 1254). The PDCs were cultured in complete DMEM/F12 media without 10 microM Y-27632 dihydrochloride for at least two passages prior to the screen. The established cell lines NCI-H1341 and […] were cultured in DMEM/F-12, HEPES (Invitrogen, cat. 11330032), 5% defined fetal bovine serum (HyClone Laboratories Inc., cat. SH30070.03), ITS premix universal culture supplement [insulin (5 microg/mL), transferrin (5 microg/mL), and selenious acid (5 ng/mL)] […]

[1] = second compound 0.1 µM, first compound 0.0316 µM
[2] = second compound 0.1 µM, first compound 0.1 µM
[3] = second compound 0.1 µM, first compound 0.316 µM
[4] = second compound 0.1 µM, first compound 1 µM
[5] = second compound 0.1 µM, first compound 3.16 µM
[6] = second compound 0.1 µM, first compound 10 µM
[7] = second compound 0.316 µM, first compound 0.0316 µM
[8] = second compound 0.316 µM, first compound 0.1 µM
[9] = second compound 0.316 µM, first compound 0.316 µM
[10] = second compound 0.316 µM, first compound 1 µM
[11] = second compound 0.316 µM, first compound 3.16 µM
[12] = second compound 0.316 µM, first compound 10 µM
[13] = second compound 1 µM, first compound 0.0316 µM
[14] = second compound 1 µM, first compound 0.1 µM
[15] = second compound 1 µM, first compound 0.316 µM
[16] = second compound 1 µM, first compound 1 µM
[17] = second compound 1 µM, first compound 3.16 µM
[18] = second compound 1 µM, first compound 10 µM
[19] = second compound 3.16 µM, first compound 0.0316 µM
[20] = second compound 3.16 µM, first compound 0.1 µM
[21] = second compound 3.16 µM, first compound 0.316 µM
[22] = second compound 3.16 µM, first compound 1 µM
[23] = second compound 3.16 µM, first compound 3.16 µM
[24] = second compound 3.16 µM, first compound 10 µM
[25] = second compound 10 µM, first compound 0.0316 µM
[26] = second compound 10 µM, first compound 0.1 µM
[27] = second compound 10 µM, first compound 0.316 µM
[28] = second compound 10 µM, first compound 1 µM
[29] = second compound 10 µM, first compound 3.16 µM
[30] = second compound 10 µM, first compound 10 µM

Nc1ccccc1NC(=O)c1ccc(CNC(=O)OCc2cccnc2)cc1 + CC(CO)NC(=O)c1cc(-c2ccc(Cl)cc2)nn(-c2cnn(C)c2)c1=O
pIC50 (second compound 0.1 µM): 6.02
pIC50 (second compound 0.316 µM): 6.10
pIC50 (second compound 1 µM): 6.12
pIC50 (second compound 3.16 µM): 6.15
pIC50 (second compound 10 µM): 6.49
viability, T/C [1]: 89.4%
viability, T/C [2]: 88.8%
viability, T/C [3]: 77.7%
viability, T/C [4]: 44.6%
viability, T/C [5]: 24.5%
viability, T/C [6]: 1.98%
viability, T/C [7]: 79.5%
viability, T/C [8]: 85.8%
viability, T/C [9]: 74%
viability, T/C [10]: 39.5%
viability, T/C [11]: 23.2%
viability, T/C [12]: 2.07%
viability, T/C [13]: 75%
viability, T/C [14]: 75%
viability, T/C [15]: 78.5%
viability, T/C [16]: 39.2%
viability, T/C [17]: 23%
viability, T/C [18]: 4.91%
viability, T/C [19]: 64.5%
viability, T/C [20]: 73.8%
viability, T/C [21]: 71.4%
viability, T/C [22]: 38.1%
viability, T/C [23]: 20.2%
viability, T/C [24]: 1.92%
viability, T/C [25]: 58.2%
viability, T/C [26]: 53.1%
viability, T/C [27]: 55.1%
viability, T/C [28]: 28.7%
viability, T/C [29]: 14.5%
viability, T/C [30]: 0.8%

O=C(c1cc(Cc2n[nH]c(=O)c3ccccc23)ccc1F)N1CCN(C(=O)C2CC2)CC1 + CC(CO)NC(=O)c1cc(-c2ccc(Cl)cc2)nn(-c2cnn(C)c2)c1=O
pIC50 (second compound 0.1 µM): < 5.00
pIC50 (second compound 0.316 µM): < 5.00
pIC50 (second compound 1 µM): < 5.00
pIC50 (second compound 3.16 µM): < 5.00
pIC50 (second compound 10 µM): < 5.00
viability, T/C [1]: 105%
viability, T/C [2]: 93.3%
viability, T/C [3]: 102%
viability, T/C [4]: 84.6%
viability, T/C [5]: 94.6%
viability, T/C [6]: 85.3%
viability, T/C [7]: 97%
viability, T/C [8]: 106%
viability, T/C [9]: 99.9%
viability, T/C [10]: 81.2%
viability, T/C [11]: 87.4%
viability, T/C [12]: 81.7%
viability, T/C [13]: 99%
viability, T/C [14]: 96.6%
viability, T/C [15]: 94.6%
viability, T/C [16]: 77.9%
viability, T/C [17]: 87.2%
viability, T/C [18]: 79.9%
viability, T/C [19]: 91.3%
viability, T/C [20]: 81.7%
viability, T/C [21]: 83.5%
viability, T/C [22]: 77.2%
viability, T/C [23]: 79%
viability, T/C [24]: 70.3%
viability, T/C [25]: 71.7%
viability, T/C [26]: 67.6%
viability, T/C [27]: 69.1%
viability, T/C [28]: 61.6%
viability, T/C [29]: 64.1%
viability, T/C [30]: 62%
